Measured values taken from patent US20260193268A1, “TRICYCLIC PI3Ka INHIBITOR, PREPARATION METHOD THEREFOR, AND PHARMACEUTICAL USE THEREOF” (WIGEN BIOMEDICINE TECHNOLOGY (SHANGHAI) CO., LTD., priority 2022, published 2026).
Like-named read-outs stand apart in the source and are kept apart here.

Legend:
[1] = tested on: MCF-7 cells (with PI3Kα E545K mutation); experiment: In vitro inhibition of MCF-7 cell proliferation (CellTiter-Lumi); format: cell-based; conditions: numeric values, read-out: Inhibitory activity against MCF-7 cells (IC50)
Description: Biological Example 3. Assay for In Vitro Inhibition of MCF-7 Cell Proliferation by Compounds of the Present Disclosure
MCF-7 cells (with PI3Kα E545K mutation) were seeded into a 384-well plate (Fisher 142762) at 2000 cells per well. The next day, serially diluted compounds were added, and 144 h after the addition, CellTiter-Lumi (Beyotime C0068XL) was added to measure the ATP content in the cells. The growth of the cells was evaluated, and the IC50 for the inhibition of cell growth by the compounds was calculated.

[2] = tested on: HCC1954 cells (with PI3Kα H1047R mutation); experiment: In vitro inhibition of HCC1954 cell proliferation (CellTiter-Lumi); format: cell-based; conditions: HCC1954 cells, 144 h, CellTiter-Lumi, numeric values, read-out: Inhibitory activity against HCC1954 cells (IC50)
Description: Assay for In Vitro Inhibition of HCC1954 Cell Proliferation by Compounds of the Present Disclosure
The growth of the cells was evaluated, and the IC50 for the inhibition of cell growth by the compounds was calculated.

IC50 ([1]; Homo sapiens, MCF7, 144 h) | IC50 ([2]; Homo sapiens, HCC1954, 144 h) | SMILES | IC50 ([1]; 144 h) | IC50 [2]
0.013 µM | 0.075 µM | C=CC(=O)Nc1ccc(N2CCC(N3CCN(c4ccc5c(c4)-c4nc(N6C(=O)OC[C@H]6C(F)F)cn4CCO5)CC3)C2)cc1 (single isomer, unassigned) [Compound 29] |  | 
0.216 µM | 1.61 µM | Cc1nc(NC(=O)N2CCC[C@H]2C(N)=O)sc1-c1ccnc(C(C)(C)C(F)(F)F)c1 [Alpelisib, reference compound] |  | 
 |  | CC(C)=CC(=O)CCC(=O)N1CCN(Cc2cc3nc(-c4cccc5[nH]ncc45)nc(N4CCOCC4)c3s2)CC1 [CNX1351] | 0.29 µM | 1.19 µM
0.062 µM | 0.282 µM | C=CC(=O)N1CC[C@H](C(=O)NCC(=O)N2CCN(c3ccc4c(c3)-c3nc(N5C(=O)OC[C@H]5C(F)F)cn3CCO4)CC2)C1 [Compound 3] |  | 
0.099 µM | 0.663 µM | C=CC(=O)N1CCC(C(=O)NCC(=O)N2CCN(c3ccc4c(c3)-c3nc(N5C(=O)OC[C@H]5C(F)F)cn3CCO4)CC2)CC1 [Compound 6] |  | 
0.106 µM | 0.925 µM | C=CC(=O)N1CCC(CCC(=O)N2CCN(c3ccc4c(c3)-c3nc(N5C(=O)OC[C@H]5C(F)F)cn3CCO4)CC2)CC1 [Compound 7] |  | 
0.063 µM | > 1 µM | C=CC(=O)N1CCC(N2CCC(CN3CCN(c4ccc5c(c4)-c4nc(N6C(=O)OC[C@H]6C(F)F)cn4CCO5)CC3)CC2)CC1 [Compound 8] |  | 
0.075 µM | > 1 µM | C=CC(=O)N1CCC(CN2CCC(N3CCN(c4ccc5c(c4)-c4nc(N6C(=O)OC[C@H]6C(F)F)cn4CCO5)CC3)CC2)CC1 [Compound 9] |  | 
0.146 µM | > 1 µM | C=CC(=O)N1CCC(N2CCC(N3CCN(c4ccc5c(c4)-c4nc(N6C(=O)OC[C@H]6C(F)F)cn4CCO5)CC3)CC2)CC1 [Compound 10] |  | 
0.058 µM | 0.298 µM | C=CC(=O)Nc1ccc(CCC(=O)N2CCN(c3ccc4c(c3)-c3nc(N5C(=O)OC[C@H]5C(F)F)cn3CCO4)CC2)cc1 [Compound 11] |  | 
0.049 µM | 0.399 µM | C=CC(=O)Nc1ccc(N2CCC(CN3CCN(c4ccc5c(c4)-c4nc(N6C(=O)OC[C@H]6C(F)F)cn4CCO5)CC3)CC2)cc1 [Compound 12] |  | 
0.04 µM | 0.862 µM | C=CC(=O)N1CCN(CCC(=O)N2CCN(c3ccc4c(c3)-c3nc(N5C(=O)OC[C@H]5C(F)F)cn3CCO4)CC2)CC1 [Compound 13] |  | 
0.014 µM | 0.128 µM | C=CC(=O)N1CCN(CCCC(=O)N2CCN(c3ccc4c(c3)-c3nc(N5C(=O)OC[C@H]5C(F)F)cn3CCO4)CC2)CC1 [Compound 15] |  | 
0.007 µM | 0.063 µM | C=CC(=O)Nc1ccc(CCN2CCN(c3ccc4c(c3)-c3nc(N5C(=O)OC[C@H]5C(F)F)cn3CCO4)CC2)cc1 [Compound 16] |  | 
0.025 µM | 0.068 µM | C=CC(=O)Nc1ccc(N2CC3(CCN(c4ccc5c(c4)-c4nc(N6C(=O)OC[C@H]6C(F)F)cn4CCO5)CC3)C2)cc1 [Compound 18] |  | 
0.217 µM | > 1 µM | C=CC(=O)N1CCC(CCN2CC3(C2)CN(c2ccc4c(c2)-c2nc(N5C(=O)OC[C@H]5C(F)F)cn2CCO4)C3)CC1 [Compound 19] |  | 
0.069 µM | 0.438 µM | C=CC(=O)Nc1ccc(N2CC[C@H](CN3CCN(c4ccc5c(c4)-c4nc(N6C(=O)OC[C@H]6C(F)F)cn4CCO5)CC3)C2)cc1 [Compound 20] |  | 
0.023 µM | 0.251 µM | C=CC(=O)N1CC[C@@H](C(=O)N2CC3(CCN(c4ccc5c(c4)-c4nc(N6C(=O)OC[C@H]6C(F)F)cn4CCO5)CC3)C2)C1 [Compound 21] |  | 
0.143 µM | > 1 µM | C=CC(=O)N1CC[C@H](CN2CC3(CCN(c4ccc5c(c4)-c4nc(N6C(=O)OC[C@H]6C(F)F)cn4CCO5)CC3)C2)C1 [Compound 22] |  | 
0.186 µM | > 1 µM | C=CC(=O)N1CC[C@@H](CN2CC3(CCN(c4ccc5c(c4)-c4nc(N6C(=O)OC[C@H]6C(F)F)cn4CCO5)CC3)C2)C1 [Compound 23] |  | 
1.12 µM | > 1 µM | C=CC(=O)N1CCC(CN2CC3(CCN(c4ccc5c(c4)-c4nc(N6C(=O)OC[C@H]6C(F)F)cn4CCO5)CC3)C2)CC1 [Compound 24] |  | 
